Test results taken from patent US9119816B2, “Method for prevention or treatment of diabetic angiogenesis impairment using C-peptide” (KANGWON NATIONAL UNIVERSITY UNIVERSITY-INDUSTRY COOPERATION …, priority 2012, dated 2015).
Entries after “also recorded” stand apart in the source; their conditions may differ.

Legend:
HUVECs [1] = experiment: Transwell migration assay (HUVECs); type: cell-based, human; details: 12 h; for chemotactic migration of endothelial cells: VEGF 10 ng/ml
Procedure: HUVECs were isolated from the human umbilical cord vein according to a well known process, and cells from passages 3 to 6 were used in the following experiments. Cells were inoculated into M199 culture media (supplemented with 20% FBS, 3 ng/ml bFGF, 5 U/ml heparin, 100 U/ml penicillin, and 100 μg/ml streptomycin) in 2% gelatin-coated coverslips, dishes, or plates, and grown at 37° C. in a humidified 5% CO2 incubator.
For experiments, cells were serum starved for 6 h by incubation in low-serum medium (M199 supplemented as above, but with only 1% FBS), and treated for a suitable time with 10 ng/ml VEGF in the presence or absence of various concentrations of C-peptide.
(§1) Angiogenesis is accompanied by endothelial cell migration and capillary-like network formation. To evaluate the ability of C-peptide to induce angiogenesis by examining whether C-peptide stimulates endothelial cell migration, the chemotactic motility of HUVECs and NIH3T3 cells were assayed using TRANSWELL® Permeable Supports (Costar, Corning, N.Y.).
(§2) In detail, the lower surface of the filters was coated with 5 μl of 2% gelatin. Low-serum media containing VEGF, FGF-2 or C-peptide were placed in the lower wells. HUVECs or NIH3T3 cells were seeded at a density of 1×10^5 cells per 200 μl of the low-serum medium in each of the upper wells, and incubated at 37° C. for 12 h. Cells were fixed with 100% methanol for 15 min, stained with hematoxylin and eosin, and dried. The average number of migrated cells in three randomly chosen fields of view per insert was taken to quantify the extent of migration using a fluorescence inverted microscope (Olympus).

NIH3T3 cells [2] = experiment: Transwell migration assay (NIH3T3 fibroblasts); type: cell-based; details: 12 h; for chemotactic migration of fibroblast cells: FGF-2 1 ng/ml
Procedure: NIH3T3 fibroblasts obtained from ATCC (American Type Culture Collection) were grown in a DMEM medium supplemented with 10% calf serum, 100 U/ml penicillin, and 100 μg/ml streptomycin.
NIH3T3 cells were serum starved for 12 hrs in a low-serum medium (DMEM supplemented as above, but with only 0.1% calf serum).
as §1, §2
To elucidate the role of C-peptide in the migration of chemotactic fibroblast cells, NIH3T3 cells were treated with C-peptide for 12 h.

HUVECs [3] = experiment: Wound healing (scratch) assay (HUVECs); type: cell-based, human; details: 24 h, C-peptide 0.5 nM, VEGF 10 ng/ml, p<0.01
Procedure: (§3) HUVECs and NIH3T3 cells were cultured on 6-well culture plates coated with gelatin. After being obtained, confluent cell layers were starved with low-serum media for 6 h, stained with 1 μM calcein-AM for 30 min, and wounded with a plastic scraper. Low-serum media and cell debris were removed, followed by replenishing the cell culture with 2 ml of low-serum media containing VEGF or C-peptide. Cells were then incubated at 37° C. for 24 h. Migrated cells was counted from images obtained using a confocal microscope (FV-300, Olympus).

NIH3T3 cells [4] = experiment: Wound healing (scratch) assay (NIH3T3 fibroblasts); type: cell-based; details: NIH3T3, 24 h; C-peptide 0.5 nM, FGF-2 1 ng/ml; p<0.01
Procedure: as §3
C-peptide-induced cell migration was further investigated by the wound-healing assay. […] FGF-2 also stimulated chemotactic migration and wound healing in fibroblast cells (p<0.01; FIG. 6).

HUVECs [5] = experiment: Tube formation assay on Matrigel; type: cell-based, human; details: 24 to 30 h; for formation of capillary-like networks (tube formation): VEGF 10 ng/ml
Procedure: To examine whether C-peptide can activate angiogenesis in vitro, a tube formation assay was conducted in a Matrigel layer using HUVECs.
(§4) The formation of capillary-like networks by HUVECs on growth factor-reduced Matrigel (BD Biosciences, Franklin Lakes, N.J.) was achieved using a method known in the art. Briefly, 24-well culture plates were coated with Matrigel according to the manufacturer's instructions. HUVECs were seeded onto a layer of Matrigel at a density of 4×10^5 cells/well, and treated with VEGF or C-peptide at 37° C. for 24 to 30 h. The degree of tube formation was quantified by measuring the length of tubes from the images using the FV-300 software.

[6] = In vivo Matrigel plug assay; details: mice, s.c. 0.5 ml Matrigel with 5 nM C-peptide or 100 ng/ml VEGF, 7 days, compared with control
Procedure: (§5) Male C57BL/6 mice, six weeks old, were purchased from Nara Biotech (Seoul, Korea). The mice were maintained in temperature-controlled clean racks with a 12-h light/dark cycle. All experiments were performed in accordance with the guidelines of the Institutional Animal Care and Use Ethics Committee of Kangwon National University.
A matrigel plug assay was used to examine whether C-peptide can induce angiogenesis in vivo. In this regard, in vivo Matrigel plug assays were performed according to a method known in the art.
Briefly, mice were injected subcutaneously with 0.5 ml of Matrigel containing 100 ng/ml VEGF or 5 nM C-peptide, and 10 U heparin. After 7 days, the Matrigel plugs were removed from the subcutaneous region, and photographed using a camera (Sony, Japan).

ERK1/2 = ERK1/2 phosphorylation by Western blot in HUVECs; type: cell-based, human; details: for ERK1/2 phosphorylation: 0.5 nM C-peptide or 10 ng/ml VEGF, time-dependent
Procedure: (§6) Since the activation of ERK1/2 and Akt is critical for the induction of cell migration and tube formation, an examination was made of the effect of C-peptide on ERK1/2 and AKT phosphorylation in HUVECs.
(§7) Phosphorylation of ERK1/2 and Akt was determined by Western blot analyses. Briefly, HUVECs were scraped off with ice-cold lysis buffer (50 mM Tris-HCl, pH 7.5, 1% Triton X-100, 150 mM NaCl, 1 mM EDTA, 0.1 mM PMSF, 10 μg/mL aprotinin, and 10 μg/mL leupeptin) and centrifuged at 18,000 g for 10 min at 4° C. The resulting cell lysates were separated by SDS-PAGE and transferred to polyvinylidene fluoride membranes.
(§8) Protein bands were visualized by exposure to X-ray films and a chemiluminescent substrate (Pierce, Rockford, Ill.). Levels of protein phosphorylation were normalized using the total amount of the proteins, and are expressed relative to unstimulated control levels (CON) in FIGS. 3A and 3B.

Akt = Akt phosphorylation by Western blot in HUVECs; type: cell-based, human; details: for Akt phosphorylation: 0.5 nM C-peptide or 10 ng/ml VEGF, time-dependent
Procedure: as §6, §7, §8

NO = experiment: Intracellular NO production (DAF-FM DA, confocal microscopy) in HUVECs; type: cell-based, human; details: 2 h, 0.5 nM C-peptide (p<0.05) or 10 ng/ml VEGF (p<0.01)
Procedure: Since phosphorylation of Akt increases NO production by VEGF, which is the important factor mediating angiogenesis, an examination was made to see whether C-peptide can stimulate NO production. For this, intracellular NO levels were measured using DAF-FM DA (diaminofluorescein-FM diacetate, Molecular Probes, Eugene, Oreg.) according to a method known in the art.
Briefly, HUVECs were treated with VEGF or C-peptide in phenol red-free low-serum media for indicated times and incubated with 2 μM DAF-FM DA for the final 1 h. Thereafter, the cells were washed with low-serum media before confocal microscropy. Levels of intracellular NO were determined by comparing the fluorescence intensities of treated cells with those of untreated control cells and expressing them as fold differences.

[7] = Cutaneous wound healing in streptozotocin-induced diabetic mice; type: in vivo
Procedure: as §5
Diabetic mice were generated by single intraperitoneal injection of a 100 mM citrate buffer (pH 4.5) containing streptozotocin in (150 mg/kg body weight). After injection, mice were supplied overnight with 10% sucrose to prevent sudden hypoglycemic shock. Sufficient hyperglycemia was observed two days after injection, as measured for blood glucose by the Accu-Check Active blood glucose monitor (Roch Diagnostics, Germany) and for glucosurea by Uriscan (TD Diagnostics, Young-In, Korea). After 1 week, mice with non-fasting blood glucose levels greater than 16 mM, polyuria, and glucosuria were defined diabetic and used for experiment. […]
The dorsal skin of the vertebral column was shaved with Veet cream before creating a wound. Full-thickness skin wounds, 4 mm in diameter, were created on the dorsal surface of the hind limbs with a biopsy punch, and closure was monitored with a digital camera. Open wound size was measured by tracing the wound margin using vernier calipers at regular intervals of two days, and monitored with a digital camera. […]

[8] = Hair follicle regeneration and blood vessel formation around wound (whole-mount PECAM-1 immunostaining); type: in vivo; details: diabetic mice + C-peptide vs diabetic mice, 14 days after wounding
Procedure: The effect of C-peptide on the regeneration of hair follicles and the formation of blood vessels was observed by whole-mount immunostaining. In this regard, 14 days after wounding, mice were sacrificed, and the dorsal skin was removed for observation of hair follicles and blood vessels. Skin tissues from all the dead mice were excised using a scissor in order to avoid damaging its healing edge, fixed immediately in 4% paraformaldehyde in PBS overnight, and stored overnight in methanol at −20° C. For immunohistochemistry, tissue samples were blocked with 2% BSA in 0.1% TritonX-100 in TBS, and incubated with goat-polyclonal platelet endothelial cell adhesion molecule-I antibody for 2 d, followed by probing with Alexa-546-conjugated rabbit anti-goat IgG and then confocal microscopy.

HUVECs [9] = experiment: Inhibition of C-peptide-induced tube formation by HUVECs; type: cell-based, human; details: 0.5 nM C-peptide, 24-30 h
Procedure: (§9) FIG. 4A is a graph in which tube formation is quantified by confocal microscopy and results are represented as mean±S.D. from three independent experiments after HUVECs were seeded onto a Matrigel layer and incubated for 24-30 h with 0.5 nM C-peptide (C-pep) in the presence of the indicated concentrations of L-NAME, PD98058, and wortmannin, and
as §4
(§10) The roles of ERK1/2, PI3K/Akt, and NO in C-peptide-induced angiogenesis were examined using PD98059, wortmannin, and L-NG-nitroarginine methyl ester (L-NAME), respectively.

HUVECs [10] = experiment: Inhibition of VEGF-induced tube formation by HUVECs; type: cell-based, human; details: 10 ng/ml VEGF, 24-30 h
Procedure: as §9, with “4B” for “4A”, “10 ng/ml VEGF” for “0.5 nM C-peptide (C-pep)”, “wortmannin.” for “wortmannin, and”
as §4, §10

| Molecule | chemotactic migration of endothelial cells (HUVECs [1]) | chemotactic migration of fibroblast cells (NIH3T3 cells [2]) | cell migration to the wounded area (HUVECs [3]) | cell migration to the wounded area (fibroblasts) (NIH3T3 cells [4]) | formation of capillary-like networks (tube formation) (HUVECs [5]) | new blood vessel formation in Matrigel plug [6] | ERK1/2 phosphorylation (ERK1/2) | Akt phosphorylation (Akt) | level of intracellular NO (NO) | inhibition of C-peptide-stimulated tube formation (HUVECs [9]) | effect on VEGF-induced tube formation (HUVECs [10]) | also measured |
| --- | --- | --- | --- | --- | --- | --- | --- | --- | --- | --- | --- | --- |
| C-peptide | dose-dependent increase | dose-dependent increase | significantly stimulated | significantly stimulated | stimulated | significantly higher induction | increased | induced | significantly elevated | – | – | concentration of maximal effect on chemotactic migration of endothelial cells (HUVECs [1]): 0.5 nM; concentration of maximal effect on chemotactic migration of fibroblast cells (NIH3T3 cells [2]): 1 nM; concentration of maximal effect on formation of capillary-like networks (HUVECs [5]): 0.5 nM; ERK1/2 activation maintained until (ERK1/2; 0.5 nM C-peptide): 60 min; time of maximal stimulation of ERK1/2 phosphorylation (ERK1/2; 0.5 nM C-peptide): 15 min; time of maximal effect on Akt phosphorylation (Akt; 0.5 nM C-peptide): 15 min; wound area versus normal mice ([7]; STZ-diabetic mice, C-peptide 35 pmol/kg/min s.c. osmotic pump, 4 mm wound, 4 and 10 days after skin injury): no significant differences; wound closure compared with diabetic mice ([7]; diabetic mice + C-peptide vs diabetic mice): accelerated; regeneration (number) of hair follicles around wound [8]: significant increase; also recorded: increased; formation (number) of blood vessels around wound ([8]; PECAM-1 staining): significant increase; also recorded: increased |
| FGF-2: growth factor used as comparator for fibroblast migration [reference compound] | – | stimulated | – | stimulated | – | – | – | – | – | – | – | – |
| COC(=O)[C@@H](N)CCCNC(=N)N[N+](=O)[O-] [L-NAME, L-NG-nitroarginine methyl ester] | – | – | – | – | – | – | – | – | – | dose-dependent inhibition | prevented | – |
| vascular endothelial growth factor [VEGF, reference compound] | stimulated | – | stimulated | – | induced | similar | induced | induced | higher level | – | – | – |
| COc1cccc(-c2cc(=O)c3ccccc3o2)c1N [PD98059] | – | – | – | – | – | – | – | – | – | inhibited | prevented | concentration of maximal inhibition of C-peptide-stimulated tube formation (HUVECs [9]): 10 µM |
